For 13 compounds, MIC results are on record in ChEMBL document CHEMBL4725492, “Dioxane-Linked Amide Derivatives as Novel Bacterial Topoisomerase Inhibitors against Gram-Positive Staphylococcus aureus” (ACS Med Chem Lett, 2020).

Molecules are shown by their SMILES. ≈ marks a conversion by molar mass, not a printed value.

For orientation: MIC means the least concentration at which growth counts as inhibited. Lower therefore signals a more susceptible organism.

The first test relates to Staphylococcus aureus. As to the kind of experiment: Antibacterial activity against Staphylococcus aureus ATCC 29213 by CLSI based agar dilution method. Type of test: functional. Background: In agar dilution, organisms are placed on agar that contains the substance at set levels.
`COc1ccc2nccc(CC[C@H]3OC[C@H](NC(=O)C4Cc5ccccc5CO4)CO3)c2c1` (stereo not given in full): the minimum inhibitory concentration (MIC) was above 64 µg/mL.

Take `COc1ccc2nccc(CC[C@H]3OC[C@H](NC(=O)C4COc5ccccc5O4)CO3)c2c1` (stereo not given in full): the minimal inhibitory concentration (MIC) is above 64 µg/mL.

In turn, `COc1ccc2nccc(CC[C@H]3OC[C@H](NC(=O)[C@H]4CC[C@H](N)CC4)CO3)c2c1` yielded a minimal inhibitory concentration (MIC) above 64 µg/mL.

Take `COc1ccc2nccc(CC[C@H]3OC[C@H](NC(=O)[C@H]4CC[C@@H](N)CC4)CO3)c2c1`: the MIC was above 64 µg/mL.

With `COc1ccc2nccc(CC[C@H]3OC[C@H](NC(=O)c4cccnc4)CO3)c2c1`, inhibition of growth (MIC) required 256 µg/mL (≈ 651 µM).

For the compound `COc1ccc2nccc(CC[C@H]3OC[C@H](NC(=O)CC4CCCCC4)CO3)c2c1`, the MIC was above 64 µg/mL.

In turn, `COc1ccc2nccc(CC[C@H]3OC[C@H](NC(=O)c4ccc(C#N)cc4)CO3)c2c1` yielded an MIC above 8 µg/mL.

`COc1ccc2nccc(CC[C@H]3OC[C@H](NC(=O)c4ccccc4)CO3)c2c1` registered an MIC of 8 µg/mL (≈ 20.4 µM).

The compound `COc1ccc2nccc(CC[C@H]3OC[C@H](NC(=O)c4ccc(F)cc4)CO3)c2c1` registered an MIC above 256 µg/mL.

For `COc1ccc2nccc(CC[C@H]3OC[C@H](NC(=O)C4CCNCC4)CO3)c2c1`, the MIC is above 64 µg/mL.

The compound `COc1ccc2nccc(CC[C@H]3OC[C@H](NC(=O)C4COc5ccccc5C4)CO3)c2c1` (stereo not given in full) had a minimum inhibitory concentration (MIC) above 64 µg/mL.

As to `COc1ccc2nccc(CC[C@H]3OC[C@H](NC(=O)c4ccccn4)CO3)c2c1`, the MIC was above 256 µg/mL.

`COc1ccc2nccc(CC[C@H]3OC[C@H](NC(=O)C4CCN(C)CC4)CO3)c2c1`: the MIC was above 64 µg/mL.

Another test relates to Staphylococcus aureus. As to the kind of experiment: Antibacterial activity against Staphylococcus aureus USA300 by CLSI based agar dilution method. Type of test: functional.
`COc1ccc2nccc(CC[C@H]3OC[C@H](NC(=O)C4Cc5ccccc5CO4)CO3)c2c1` (stereo not given in full) yielded an MIC above 64 µg/mL.

For the compound `COc1ccc2nccc(CC[C@H]3OC[C@H](NC(=O)C4COc5ccccc5O4)CO3)c2c1` (stereo not given in full), the MIC is above 64 µg/mL.

As to `COc1ccc2nccc(CC[C@H]3OC[C@H](NC(=O)[C@H]4CC[C@H](N)CC4)CO3)c2c1`, the MIC is above 64 µg/mL.

Turning to `COc1ccc2nccc(CC[C@H]3OC[C@H](NC(=O)[C@H]4CC[C@@H](N)CC4)CO3)c2c1`, the minimum inhibitory concentration (MIC) was above 64 µg/mL.

In turn, `COc1ccc2nccc(CC[C@H]3OC[C@H](NC(=O)c4cccnc4)CO3)c2c1` registered an MIC of 128 µg/mL (≈ 325 µM).

Consider `COc1ccc2nccc(CC[C@H]3OC[C@H](NC(=O)CC4CCCCC4)CO3)c2c1`, for which the minimum inhibitory concentration (MIC) was above 64 µg/mL.

Regarding `COc1ccc2nccc(CC[C@H]3OC[C@H](NC(=O)c4ccc(C#N)cc4)CO3)c2c1`, the MIC is above 8 µg/mL.

On to `COc1ccc2nccc(CC[C@H]3OC[C@H](NC(=O)c4ccccc4)CO3)c2c1`, for which inhibition of growth (MIC) required 8 µg/mL (≈ 20.4 µM).

The compound `COc1ccc2nccc(CC[C@H]3OC[C@H](NC(=O)c4ccc(F)cc4)CO3)c2c1` had an MIC above 256 µg/mL.

For the compound `COc1ccc2nccc(CC[C@H]3OC[C@H](NC(=O)C4CCNCC4)CO3)c2c1`, the MIC was above 64 µg/mL.

Turning to `COc1ccc2nccc(CC[C@H]3OC[C@H](NC(=O)C4COc5ccccc5C4)CO3)c2c1` (stereo not given in full), the MIC is above 64 µg/mL.

Compound `COc1ccc2nccc(CC[C@H]3OC[C@H](NC(=O)c4ccccn4)CO3)c2c1` returned an MIC above 256 µg/mL.

For `COc1ccc2nccc(CC[C@H]3OC[C@H](NC(=O)C4CCN(C)CC4)CO3)c2c1`, the minimum inhibitory concentration (MIC) was above 64 µg/mL.

The next test deals with Staphylococcus aureus. The test can be described thus: Antibacterial activity against Staphylococcus aureus D83N by CLSI based agar dilution method. Type of test: functional.
The compound `COc1ccc2nccc(CC[C@H]3OC[C@H](NC(=O)C4Cc5ccccc5CO4)CO3)c2c1` (stereo not given in full) came in with a minimum inhibitory concentration (MIC) above 64 µg/mL.

`COc1ccc2nccc(CC[C@H]3OC[C@H](NC(=O)C4COc5ccccc5O4)CO3)c2c1` (stereo not given in full) gave an MIC above 64 µg/mL.

Regarding `COc1ccc2nccc(CC[C@H]3OC[C@H](NC(=O)[C@H]4CC[C@H](N)CC4)CO3)c2c1`, the MIC is above 64 µg/mL.

`COc1ccc2nccc(CC[C@H]3OC[C@H](NC(=O)[C@H]4CC[C@@H](N)CC4)CO3)c2c1` returned an MIC above 64 µg/mL.

In turn, `COc1ccc2nccc(CC[C@H]3OC[C@H](NC(=O)c4cccnc4)CO3)c2c1` registered an MIC of 128 µg/mL (≈ 325 µM).

Turning to `COc1ccc2nccc(CC[C@H]3OC[C@H](NC(=O)CC4CCCCC4)CO3)c2c1`, the minimal inhibitory concentration (MIC) was above 64 µg/mL.

As to `COc1ccc2nccc(CC[C@H]3OC[C@H](NC(=O)c4ccccc4)CO3)c2c1`, the MIC was above 256 µg/mL.

Turning to `COc1ccc2nccc(CC[C@H]3OC[C@H](NC(=O)c4ccc(F)cc4)CO3)c2c1`, the minimal inhibitory concentration (MIC) was above 256 µg/mL.

Turning to `COc1ccc2nccc(CC[C@H]3OC[C@H](NC(=O)C4CCNCC4)CO3)c2c1`, the minimum inhibitory concentration (MIC) is above 64 µg/mL.

`COc1ccc2nccc(CC[C@H]3OC[C@H](NC(=O)C4COc5ccccc5C4)CO3)c2c1` (stereo not given in full): the MIC is above 64 µg/mL.

`COc1ccc2nccc(CC[C@H]3OC[C@H](NC(=O)c4ccccn4)CO3)c2c1` came in with a minimum inhibitory concentration (MIC) above 256 µg/mL.

`COc1ccc2nccc(CC[C@H]3OC[C@H](NC(=O)C4CCN(C)CC4)CO3)c2c1` gave an MIC above 64 µg/mL.

In another test the test system is Staphylococcus aureus. As to the kind of experiment: Antibacterial activity against Staphylococcus aureus 3527 by CLSI based agar dilution method. Type of test: functional.
`COc1ccc2nccc(CC[C@H]3OC[C@H](NC(=O)C4Cc5ccccc5CO4)CO3)c2c1` (stereo not given in full) displayed a minimum inhibitory concentration (MIC) above 64 µg/mL.

The compound `COc1ccc2nccc(CC[C@H]3OC[C@H](NC(=O)C4COc5ccccc5O4)CO3)c2c1` (stereo not given in full) displayed an MIC above 64 µg/mL.

For the compound `COc1ccc2nccc(CC[C@H]3OC[C@H](NC(=O)[C@H]4CC[C@H](N)CC4)CO3)c2c1`, the MIC was above 64 µg/mL.

`COc1ccc2nccc(CC[C@H]3OC[C@H](NC(=O)[C@H]4CC[C@@H](N)CC4)CO3)c2c1` had an MIC above 64 µg/mL.

For the compound `COc1ccc2nccc(CC[C@H]3OC[C@H](NC(=O)c4cccnc4)CO3)c2c1`, the minimal inhibitory concentration (MIC) amounted to 128 µg/mL (≈ 325 µM).

Compound `COc1ccc2nccc(CC[C@H]3OC[C@H](NC(=O)CC4CCCCC4)CO3)c2c1` came in with an MIC above 64 µg/mL.

For `COc1ccc2nccc(CC[C@H]3OC[C@H](NC(=O)c4ccccc4)CO3)c2c1`, 4 µg/mL (≈ 10.2 µM) was the least that counted as inhibitory (MIC).

In the case of `COc1ccc2nccc(CC[C@H]3OC[C@H](NC(=O)c4ccc(F)cc4)CO3)c2c1`, the MIC was above 256 µg/mL.

`COc1ccc2nccc(CC[C@H]3OC[C@H](NC(=O)C4CCNCC4)CO3)c2c1`: the MIC is above 64 µg/mL.

`COc1ccc2nccc(CC[C@H]3OC[C@H](NC(=O)C4COc5ccccc5C4)CO3)c2c1` (stereo not given in full) came in with an MIC above 64 µg/mL.

`COc1ccc2nccc(CC[C@H]3OC[C@H](NC(=O)c4ccccn4)CO3)c2c1`: the minimal inhibitory concentration (MIC) is above 256 µg/mL.

The compound `COc1ccc2nccc(CC[C@H]3OC[C@H](NC(=O)C4CCN(C)CC4)CO3)c2c1` yielded an MIC above 64 µg/mL.
